Measurements published in patent US6750246B1, “C-4 carbonate taxanes” (Bristol-Myers Squibb Company, priority 2000, dated 2004).

Key:
[1] = test system: tumors in mice; settings: AACR 1999 abstract 1905; cited from earlier work
[2] = test system: A2780 human ovarian tumor xenograft; test: In vivo oral antitumor activity vs Sc A2780; settings: po gavage; for Oral Efficacy vs. Sc A2780 Log Cell Kill: q2d x 5, at optimal or maximum tolerated dose of Table III (mg/kg per administration), log cell kill = (T-C)/(TVDT x 3.32); for Oral Efficacy vs. Sc A2780 (Cures/Treated): q2d x 5, same dose as log cell kill, cure = tumor of 35 mg or less at termination
Experimental: The experiments were carried out using athymic (“nude”) mice. […] The compound was administered at the dose indicated in Table III, namely, once daily every other day for five treatments (i.e. q2dx5).

[3] = test system: human or animal models; settings: cited from earlier work; for Oral activity in human or animal models: prior art
[4] = administered orally; quote from WO98/53811; cited from earlier work
[5] = test system: human tumor xenografts; test: Orally administered paclitaxel against human tumor xenografts; settings: oral; athymic mice or athymic rats

Compound	Oral Efficacy vs. Sc A2780 Log Cell Kill [2]	Oral Efficacy vs. Sc A2780 (Cures/Treated) [2]	also measured
CC(=O)O[C@H]1C(=O)[C@@]2(C)[C@H]([C@H](OC(=O)c3ccccc3)[C@]34OC(=O)O[C@H]3[C@H](OC(=O)[C@H](O)[C@H](CC(C)C)NC(=O)OC(C)(C)C)C(C)=C1C4(C)C)[C@]1(OC(C)=O)CO[C@@H]1C[C@@H]2O [IDN-5109]			Oral activity against tumors in mice [1]: oral activity against tumors in mice
COC(=O)O[C@@]12CO[C@@H]1C[C@H](O)[C@@]1(C)C(=O)[C@H](OC(C)=O)C3=C(C)[C@@H](OC(=O)[C@H](O)[C@@H](NC(=O)CC(C)(C)C)C(C)(C)C)C[C@@](O)([C@@H](OC(=O)c4ccccc4)[C@H]21)C3(C)C [If, 3′-tert-Butyl-4-deacetyl-3′-dephenyl-3′-N-debenzoyl-3′-N-neopentylcarbonyl-4-O-methoxycarbonyl-paclitaxel]	1.8	0/8	
COC(=O)OC12COC1CC(O)C1(C)C(=O)C(OC(C)=O)C3=C(C)C(OC(=O)C(O)C(NC(=O)CC(C)(C)C)c4ccccc4)CC(O)(C(OC(=O)c4ccccc4)C21)C3(C)C (centres unmarked) [Ic, 3′-N-Neopentylcarbonyl-4-deacetyl-3′-N-debenzoyl-4-O-methoxycarbonyl-paclitaxel]	3.8	0/8	
3′-N-Cyclobutyl-4-deacetyl-3′-N-debenzoyl-4-O-methoxycarbonyi-paciitaxel [Id]	4.1	0/8	
CCCCOC(=O)NC(c1ccccc1)C(O)C(=O)OC1CC2(O)C(OC(=O)c3ccccc3)C3C4(OC(=O)OC)COC4CC(O)C3(C)C(=O)C(OC(C)=O)C(=C1C)C2(C)C (centres unmarked) [Ih, 4-Deacetyl-3′-N-debenzoyl-3′-N-nbutoxycarbonyl-4-O-methoxycarbonyl-paclitaxel]	1.0	1/8	
CC(=O)O[C@H]1C(=O)[C@@]2(C)[C@H]([C@H](OC(=O)c3ccccc3)[C@]3(O)C[C@H](OC(=O)[C@H](O)[C@@H](NC(=O)c4ccccc4)c4ccccc4)C(C)=C1C3(C)C)[C@]1(OC(C)=O)CO[C@@H]1C[C@@H]2O [paclitaxel]			Antitumor activity on oral administration ([3]; oral, up to 160 mg/kg/day, Suffness et al.): no evidence of antitumor activity; Oral activity in human or animal models [3]: no oral activity; Oral absorption [4]: less than 1%; Activity of orally administered paclitaxel against human tumor xenografts [5]: unsuccessful
COC(=O)OC12COC1CC(O)C1(C)C(=O)C(OC(C)=O)C3=C(C)C(OC(=O)C(O)C(NC(=O)OC4CCCCC4)C(C)(C)C)CC(O)(C(OC(=O)c4ccccc4)C21)C3(C)C (centres unmarked) [Ie, 3′-tert-Butyl-3′-N-cyclohexyloxycarbonyl-4-deacetyl-3′-dephenyl-3′-N-debenzoyl-4-O-methoxycarbonyl-paclitaxel]	1.5	0/8	
COC(=O)O[C@@]12CO[C@@H]1C[C@H](O)[C@@]1(C)C(=O)[C@H](OC(C)=O)C3=C(C)[C@@H](OC(=O)[C@H](O)[C@@H](NC(=O)OC(C)(C)C)c4ccccc4)C[C@@](O)([C@@H](OC(=O)c4ccccc4)[C@H]21)C3(C)C [Ig, 4-Deacetyl-3′-N-debenzoyl-3′-N-tertbutoxycarbonyl 4-O-methoxycarbonyl-paclitaxel]	0.9	0/8	
COC(=O)O[C@@]12CO[C@@H]1C[C@H](O)[C@@]1(C)C(=O)[C@H](OC(C)=O)C3=C(C)[C@@H](OC(=O)[C@H](O)[C@@H](NC(=O)C4CCC4)C(C)(C)C)C[C@@](O)([C@@H](OC(=O)c4ccccc4)[C@H]21)C3(C)C [Ij, 3′-N-Debenzoyl-3′-N-cyclobutylcarbonyl-3′-dephenyl-3′-tert-butyl-4-deacetyl-4-methoxycarbonyl Paclitaxel]	2.1	0/8	
COC(=O)O[C@@]12COC1C[C@H](O)[C@@]1(C)C(=O)[C@H](OC(C)=O)C3=C(C)[C@@H](OC(=O)[C@H](O)[C@@H](NC(=O)OC(C)(C)C)C(C)(C)C)C[C@@](O)([C@@H](OC(=O)c4ccccc4)C21)C3(C)C (some centres unmarked) [Ia, 3′-tert-Butyl-3′-N-tert-butyloxycarbonyl-4-deacetyl-3′-dephenyl-3′-N-debenzoyl-4-O-methoxycarbonyl-paclitaxel]	4.4	0/8	
CC(=O)O[C@@]12CO[C@@H]1C[C@H](O)[C@@]1(C)C(=O)[C@H](O)C3=C(C)[C@@H](OC(=O)[C@H](O)[C@@H](NC(=O)OC(C)(C)C)c4ccccc4)C[C@@](O)([C@@H](OC(=O)c4ccccc4)[C@H]21)C3(C)C [TAXOTERE®, docetaxel]			Oral activity in human or animal models [3]: no oral activity
COC(=O)OC12COC1CC(O)C1(C)C(=O)C(OC(C)=O)C3=C(C)C(OC(=O)C(O)C(NC(=O)OC(C)(C)C)C(C)C)CC(O)(C(OC(=O)c4ccccc4)C21)C3(C)C (centres unmarked) [Ib, 3′-N-tert-Butyloxycarbonyl-4-deacetyl-3′-dephenyl-3′-N-debenzoyl-3′-isopropyl-4-O-methoxycarbonyl-paclitaxel]	3.0	1/8	
COC(=O)OC12COC1CC(O)C1(C)C(=O)C(OC(C)=O)C3=C(C)C(OC(=O)C(O)C(NC(=O)c4ccco4)C(C)(C)C)CC(O)(C(OC(=O)c4ccccc4)C21)C3(C)C (centres unmarked) [Ik, 3′-N-Debenzoyl-3′-N-(2-furoyl)-3′-dephenyl-3′-tert-butyl-4-deacetyl-4-methoxycarbonyl Paclitaxel]	2.2	0/8	
